Literature values in patent publication US10780114B2, “Therapeutic agent for skin wound or rough skin” (JFE MINERAL COMPANY, LTD., priority 2015, dated 2020).

Assays:
[1] = tested on: fibroblast
[2] = tested on: skin; settings: in vivo

[Zn+2] [zinc ions]
Zinc ion concentration that does not exhibit toxicity to a fibroblast [1]: not more than 500 μmol/L | Zinc ion level leading to increased inflammatory cell infiltration in skin and remarkably delayed reepithelization [2]: not less than 15 mmol/L
